Where two headings read alike, the source gives them in different places. Marks after values point to notes of the source that are not given here.
Legend:
[1] = target: T1, WT EGFR (Wild-Type EGFR) (Homo sapiens, UniProt P00533); experiment: Inhibition of WT EGFR kinase activity (ADP-Glo); format: biochemical
T1 construct: purchased SignalChem
Description: (§1) To assess IC50 values of the compounds disclosed herein, a biochemical assay of inhibition of kinase activity in a non-cellular system and a functional cellular anti-proliferation assay were used.
(§2) To assess inhibition of WT EGFR (Wild-Type EGFR), DM EGFR (DoubleMutantEGFR, L828R/T790M) kinase activity, SignalChem kinase system and ADP-Glo™ Kinase Assay (V9102, Promega) detection kit were used.
(§3) The measurements were carried out in a 25 μL reaction volume using a 96-well plate. […] The solution of 0.5 mg/mL peptide substrate and 50 μM ATP in the same buffer were added; the solution was incubated for 180 minutes at 37° C. To detect the amount of ATP taken up during the kinase reaction, the ADP Glo Detection Kit (V9102, Promega) was used. The luminescence was measured with the Infinite M200Pro plate spectrophotometer (Tecan, Switzerland). IC50 values were calculated using Magellan 7.2 software (Tecan, Switzerland) approximating experimental points by four-parameter logistic model with the optimization by Levenberg-Marquardt (Table 14).

[2] = target: T2, DM EGFR (DoubleMutantEGFR, L828R/T790M) (Homo sapiens, UniProt P00533, L858R/T790M); experiment: Inhibition of DM EGFR kinase activity (ADP-Glo); format: biochemical; settings: for IC50: inhibition of kinase activity, EGFR DM (L828R/T790M); for SI, IC50(WT)/IC50(DM): selectivity index, kinase EGFR WT vs EGFR DM
T2 construct: purchased SignalChem
Description: as §1, §2, §3

[3] = Chemical stability in human blood plasma; format: in vitro ADME; settings: pooled human blood plasma; 10 μm; 4 hours at 37° C.; substance amount remaining
Description: 2) Determination of chemical stability in human blood plasma.
Determination of stability in human blood plasma was performed using pooled human blood plasma taken from ten healthy donors. The initial candidate solution (10 mM in DMSO) was diluted with pooled blood plasma to a concentration of 10 μm (test solution). The test solution was incubated in a dry block thermostat for 4 hours at 37° C. HPLC with Agilent 1200 liquid chromatography system (Agilent, USA) was employed to determine peak areas of the compounds in test samples, said peak areas corresponding to the initial test time (prior to incubation) and the final test time (after incubation in a dry block thermostat for 4 hours at 37° C.), proteins were preliminarily precipitated with acetonitrile. We used gradient elution (1 mL/min flow rate). Substance amount in % in a sample after thermostatting was determined.
The stability of the compounds was estimated.

[4] = system: A549 (lung adenocarcinoma, WT); experiment: Antiproliferative activity on A549 cells (Alamar Blue); format: cell-based; settings: Homo sapiens, antiproliferative test
Description: (§4) Antiproliferative activity of EGFR inhibitors (Tables 15 and 16) was measured in cell-based bioassay on continuous epithelial cell cultures: A549 (lung adenocarcinoma, ATCC® CRM-CCL-185™—WT), HCC827 (lung adenocarcinoma, ATCC® CRL-2868™—SM (SingleMutantEGFR, exon19delE746-A750)) and H1975 (lung adenocarcinoma, ATCC® CRL-5908™—DM (DoubleMutantEGFR, L828R/T790M)) using cell viability reagent Alamar Blue (ThermoFisher, # DAL1100). Cells were cultured in 10% FBS-supplemented (Gibco, #16140071) RPMI-1640 (PanEco, S330p) for at least 1 passage after thawing, washed with PBS and passaged in 96-well culture plates (3599, Corning) with RPMI-1640 growth medium supplemented with 2% FBS in an amount of 5*10^3 cells/well for A549, 10*10^3 cells/well for HCC827 and 15*10^3 cells/well for H1975 in 100 μL, and incubated at 37° C. in an incubator (Thermo Forma, USA) under 5% of CO2 for 16-18 h for cell attachment.
(§5) The test compounds were dissolved in DMSO in the selected range of concentrations and transferred to RPMI-1640 medium (PanEco, S330p) supplemented with 2% FBS. After adding 50 μl of the prepared dilutions to the cells, the incubation mixture contained the final concentrations of the test substances and no more than 1% DMSO. The plates were Incubated at 37° C. for 72 h. After incubation, 15 μl of Alamar Blue vital dye (ThermoFisher, # DAL1100) was added to each well. The plates were shaken on an orbital shaker (Biosan, Latvia) and further incubated for 3-5 h in a CO2 incubator (Thermo Forma, USA). Number of living cells was estimated using a plate spectrophotometer Infinite M200Pro, (Tecan, Switzerland) measuring fluorescent signal at the excitation wavelength (λEx) of 540 nm and emission wavelength (λEm) of 590 nm.
IC50 was calculated using Magellan 7.2 software (Tecan, Switzerland) approximating experimental points by four-parameter logistic model with the optimization by Levenberg-Marquardt.
(§6) The ratio between IC50 for cell lines containing wild-type EGFR (A549) and IC50 for cell lines containing target mutation L828R/T790M (H1975) is the selectivity index (SI): […]

[5] = system: H1975 (lung adenocarcinoma, DM, L828R/T790M); experiment: Antiproliferative activity on H1975 cells (Alamar Blue); format: cell-based; settings: for IC50: Homo sapiens, NCI-H1975, H1975 cells; for SI IC50(A549)/IC50(DM): selectivity index, A549 vs H1975 cells
Description: as §4, §5
IC50 was calculated using Magellan 7.2 software (Tecan, Switzerland) approximating experimental points by four-parameter logistic model with the optimization by Levenberg-Marquardt. […]
as §6

[6] = General cytotoxicity on HepG2 cells; format: cell-based; settings: human; general cytotoxicity, HepG2 cells, 72 hours, average of several tests
Description: (§7) The CC50 values were determined in the test for General cytotoxicity on HepG2 cells (rhepatocellular carcinoma, ATCC® HB-8065™) (Table 16). The cells were subcultured in DMEM medium (PanEco, S420p) supplemented with 10% FBS (Gibco, #16140071) for at least 1 passage after thawing, washed with PBS and passaged in 96-well culture plates (3599, Corning) at a concentration of 2*10^4 cells/100 μL per well, and incubated for 16-18 h. The test substances were titrated in DMSO and transferred to DMEM (PanEco, S420p) medium supplemented with 2% FBS, added to the cells and incubated at 37° C. for 72 hours; viability of the cells was then assessed using Alamar Blue dye (ThermoFisher, # DAL1100). CC50 was determined similarly to IC50.
(§8) The ratio between CC50 for HepG2 cell line and IC50 for H1975 cell line is the therapeutic index (TI): […]

[7] = system: HepG2 cells; experiment: General cytotoxicity on HepG2 cells; format: cell-based; settings: therapeutic index, CC50 HepG2 / IC50 H1975
Description: as §7, §8

[8] = antiproliferative test, Table 15, read-out: IC50 H1975 (DM)
[9] = average values obtained in several tests, Table 16, read-out: H1975 (DM) IC50

Row | SMILES | IC50 [1] [nM] | IC50 [2] [nM] | SI, IC50(WT)/IC50(DM) [2] | Stability in blood plasma, % [3] [%] | IC50 [4] [nM] | IC50 [5, 8] [nM] | SI IC50(A549)/IC50(DM) [5] | IC50 [5, 9] [nM] | CC50 at 72 h [6] [nM] | TI, CC50/IC50 [7]
1 | C=CC(=O)Nc1cc(Nc2nccc(C(=O)c3ccc(N4CCC(N)CC4)cc3OC)n2)c(OC)cc1N(C)CCN(C)C [EGFR_3365-126] | 19.8 | 1.86 | 10.62 |  |  |  |  |  |  | 
2 | C=CC(=O)Nc1cc(Nc2nccc(C(=O)c3ccc(N4CCCC4=O)cc3)n2)c(OC)cc1N(C)CCN(C)C [EGFR_3365_91] | 107 | 4.55 | 23.60 | 95.4 | 31600 | > 200 | <158 |  |  | 
3 | C=CC(=O)Nc1cc(Nc2nccc(C(=O)c3ccc(OCCOC)cc3)n2)c(OC)cc1N(C)CCN(C)C [EGFR_3365_92, N-(2-((2-(dimethylamino)ethyl)(methyl)amino)-4-methoxy-5-((4-(4-(2-methoxyethoxy)benzoyl)pyrimidin-2-yl)amino)phenyl) acrylamide] | 133 | 7.57 | 17.56 | 99.1 | 22900 | 35.1 | 652 |  |  | 
4 | C=CC(=O)Nc1cc(Nc2nccc(C(=O)c3ccc(N4CCC(C#N)CC4)cc3)n2)c(OC)cc1N(C)CCN(C)C [EGFR_3365_97, N-(5-((4-(4-(4-cyanopiperidin-1-yl)benzoyl)pyrimidin-2-yl)amino)-2-((2-(dimethylamino)ethyl)(methyl)amino)-4-methoxyphenyl)acrylamide] | 84.2 | 2.3 | 36.55 | 99.3 | 13800 | 22.9 | 601 | 22.9 | 21600 | 943
5 | C=CC(=O)Nc1cc(Nc2nccc(C(=O)c3ccc(N4CCC(OC)CC4)cc3)n2)c(OC)cc1N(C)CCN(C)C [EGFR_3365_98, N-(2-((2-(dimethylamino)ethyl)(methyl)amino)-4-methoxy-5-((4-(4-(4-methoxypiperidin-1-yl)benzoyl)pyrimidin-2-yl)amino)phenyl)acrylamide] | 83.2 | 1.86 | 44.62 | 96.1 | 14500 | 13.7 | 1065 | 13.7 | 24200 | 1770
6 | C=CC(=O)Nc1cc(Nc2nccc(C(=O)c3ccc(N4CCC[C@H](OC)C4)cc3)n2)c(OC)cc1N(C)CCN(C)C [EGFR_3365_110, (S)-N-(2-((2-(dimethylamino)ethyl)(methyl)amino)-4-methoxy-5-((4-(4-(3-methoxypiperidin-1-yl)benzoyl)pyrimidin-2-yl)amino)phenyl)acrylamide] | 97.7 | 2.32 | 42.20 | 95.7 | 9510 | 21.7 | 439 | 21.7 | 18500 | 855
7 | C=CC(=O)Nc1cc(Nc2nccc(C(=O)c3ccc(N4CCC[C@@H](OC)C4)cc3)n2)c(OC)cc1N(C)CCN(C)C [EGFR_3365_111, (R)-N-(2-((2-(dimethylamino)ethyl)(methyl)amino)-4-methoxy-5-((4-(4-(3-methoxypiperidin-1-yl)benzoyl)pyrimidin-2-yl)amino)phenyl)acrylamide] | 186 | 2.33 | 79.88 | 100.0 | 11200 | 36.6 | 307 | 36.6 | 27100 | 742
8 | C=CC(=O)Nc1cc(Nc2nccc(C(=O)c3ccc(OC4CC4)cc3)n2)c(OC)cc1N(C)CCN(C)C [EGFR_3365_116, N-(5-((4-(4-cyclopropoxybenzoyl)pyrimidin-2-yl)amino)-2-((2-(dimethylamino)ethyl)(methyl)amino)-4-methoxyphenyl)acrylamide] | 35 | 1.75 | 19.99 | 86.0 | 11800 | 29.5 | 400 | 29.5 | 22100 | 749
9 | C=CC(=O)Nc1cc(Nc2nccc(C(=O)c3ccc(N4CCCCC4)cc3OC)n2)c(OC)cc1N(C)CCN(C)C [EGFR_3365_122, N-(2-((2-(dimethylamino)ethyl)(methyl)amino)-4-methoxy-5-((4-(2-methoxy-4-(piperidin-1-yl)benzoyl)pyrimidin-2-yl)amino)phenyl)acrylamide] | 19.7 | 2.67 | 7.35 | 92.2 | 5310 | 2.21 | 2398 | 2.21 | 12600 | 5710
10 | C=CC(=O)Nc1cc(Nc2nccc(C(=O)c3ccc(N4CCC(N(C)C)CC4)cc3OC)n2)c(OC)cc1N(C)CCN(C)C [EGFR_3365_127, N-(2-((2-(dimethylamino)ethyl)(methyl)amino)-5-((4-(4-(4-(dimethylamino)piperidin-1-yl)-2-methoxybenzoyl)pyrimidin-2-yl)amino)-4-methoxyphenyl)acrylamide] | 24.5 | 2.96 | 8.29 |  | > 10000 | 8.45 | >166** |  |  | 

From US20200339544A1 (JOINT STOCK COMPANY "BIOCAD", priority 2017, published 2020)
